Assay results reported in patent publication US9771325B2, “Tricyclic compounds and preparation thereof” (Council of Scientific & Industrial Research, priority 2014, dated 2017).

Tests used:
[1] = tested on: Breast (MCF-7) cancer cell line; test: SRB assay for anticancer activity, MCF-7; assay type: cell-based, human; settings: for inhibition at 10 µM: Homo sapiens, MCF7, 48 h, read-out: % Inhibition at 10 μM Solution in Cancer Cell Line
Protocol: (§1) SRB Assay Protocol for Anticancer Activity:
(§2) Addition of cells: The human cancer cell lines Ovary (SK-OV-3), Lung (A549) and Breast (MCF-7) maintained in RPMI-1640 medium; Cervical (HeLa), Head & Neck (FaDu) and Colorectal adenocarcinoma (SW620) are maintained in DMEM medium. The enumerated cells are dispensed in a 96-well tissue culture plate. Each well receives 100 μl of the cell suspension containing 10,000-20,000 cells (depending upon the nature of cell line). The cells are then incubated at 37° C. in 5% CO2 concentration for 24 h before addition of the test samples/standard drugs.
(§3) Addition of test samples: 100 μl of working solution of the test sample is added to the cell monolayer to give a final concentration 10 μM (pure compound) For each sample, duplicate wells are included.
(§4) Positive (Drug) and Negative (Vehicle) Controls: In every assay plate both positive and vehicle controls are included. In positive control well, adriamycin (Doxorubicin) is added at 10 μM concentration. In vehicle control wells, DMSO is added. In all assay wells the final concentration of DMSO is 0.1%. The plates are then incubated at 37° C. in 5% CO2 concentration for 48 h.
(§5) Addition of SRB and Colorimetric reading: After 48 h incubation, cells attached to substratum of the plate are fixed by adding cold 50% trichloroacetic acid (TCA, 50 μl/well) on top of the medium and incubated at 4° C. for 1 h. After that the plate is gently washed 5 times with slow running tap water via plastic tubing to remove TCA, culture medium and dead cells. The water stream should not be injected very fast or directly on to the bottom of the wells as this can cause cell monolayer to detach. After washing, the plates are allowed to dry in air (plates can be stored for long periods at room temperature after fixing and drying step) […], 50 μl/well of SRB solution is added and left at room temperature for 30 min. At the end of the staining period, unbound SRB is removed by quickly rinsing plates 4-5 times with 1% (v/v) acetic acid. Plates are allowed to air-dry at room temperature (Stained and dried plates can be stored indefinitely at room temperature). 150 μl of 10 mM Tris base solution is added to each well and plate is shaken for 15 min on a gyratory shaker to solubilize the protein-bound dye. Alternatively, if a shaker is unavailable, SRB gets solubilized after 30 min in Tris base solution. Absorbance is measured at 510 nm in a microplate spectrophotometer.
(§6) Percentage of cell growth inhibition in presence of the test sample is calculated as follows: […]

[2] = tested on: Breast MDA-MB-231 cancer cell line; test: SRB assay for anticancer activity, MDA-MB-231; assay type: cell-based, human; settings: 48 h; for inhibition at 10 µM: Homo sapiens, read-out: % Inhibition at 10 μM Solution in Cancer Cell Line
[3] = tested on: Colon DLD-1 cancer cell line; test: SRB assay for anticancer activity, DLD-1; assay type: cell-based, human; settings: 48 h; for inhibition at 10 µM: Homo sapiens, read-out: % Inhibition at 10 μM Solution in Cancer Cell Line
[4] = tested on: Colorectal adenocarcinoma (SW620) cell line; test: SRB assay for anticancer activity, SW620; assay type: cell-based, human; settings: for inhibition at 10 µM: Homo sapiens, SW-620, Colon SW620, 48 h, read-out: % Inhibition at 10 μM Solution in Cancer Cell Line
Protocol: as §1, §2, §3, §4, §5, §6

[5] = tested on: Colon COLO205 cancer cell line; test: SRB assay for anticancer activity, COLO205; assay type: cell-based, human; settings: for inhibition at 10 µM: Homo sapiens, COLO 205, 48 h, read-out: % Inhibition at 10 μM Solution in Cancer Cell Line
[6] = tested on: Cervical (HeLa) cancer cell line; test: SRB assay for anticancer activity, HeLa; assay type: cell-based, human; settings: 48 h; for inhibition at 10 µM: Homo sapiens, read-out: % Inhibition at 10 μM Solution in Cancer Cell Line
Protocol: as §1, §2, §3, §4, §5, §6

[7] = tested on: cervical C-33A cancer cell line; test: SRB assay for anticancer activity, C-33A; assay type: cell-based, human; settings: 48 h; for inhibition at 10 µM: Homo sapiens, read-out: % Inhibition at 10 μM Solution in Cancer Cell Line
[8] = tested on: Head & Neck (FaDu) cancer cell line; test: SRB assay for anticancer activity, FaDu; assay type: cell-based, human; settings: 48 h; for inhibition at 10 µM: Homo sapiens, read-out: % Inhibition at 10 μM Solution in Cancer Cell Line
Protocol: as §1, §2, §3, §4, §5, §6

[9] = tested on: Head & Neck KB cancer cell line; test: SRB assay for anticancer activity, KB; assay type: cell-based, human; settings: 48 h; for inhibition at 10 µM: Homo sapiens, read-out: % Inhibition at 10 μM Solution in Cancer Cell Line
[10] = tested on: Lung (A549) cancer cell line; test: SRB assay for anticancer activity, A549; assay type: cell-based, human; settings: 48 h; for inhibition at 10 µM: Homo sapiens, read-out: % Inhibition at 10 μM Solution in Cancer Cell Line
Protocol: as §1, §2, §3, §4, §5, §6

[11] = tested on: Lung NCI-H358 cancer cell line; test: SRB assay for anticancer activity, NCI-H358; assay type: cell-based, human; settings: 48 h; for inhibition at 10 µM: Homo sapiens, read-out: % Inhibition at 10 μM Solution in Cancer Cell Line
[12] = tested on: Lung NCI-H446 cancer cell line; test: SRB assay for anticancer activity, NCI-H446; assay type: cell-based, human; settings: 48 h; for inhibition at 10 µM: Homo sapiens, read-out: % Inhibition at 10 μM Solution in Cancer Cell Line
[13] = tested on: Ovary (SK-OV-3) cancer cell line; test: SRB assay for anticancer activity, SK-OV-3; assay type: cell-based, human; settings: for inhibition at 10 µM: Homo sapiens, SK-OV-3, Ovary SKOV3, 48 h, read-out: % Inhibition at 10 μM Solution in Cancer Cell Line
Protocol: as §1, §2, §3, §4, §5, §6

[14] = tested on: Ovary NIH:OVACR-3 cancer cell line; test: SRB assay for anticancer activity, NIH:OVACR-3; assay type: cell-based, human; settings: 48 h; for inhibition at 10 µM: Homo sapiens, read-out: % Inhibition at 10 μM Solution in Cancer Cell Line
[15] = tested on: Ovary PA1 cancer cell line; test: SRB assay for anticancer activity, PA1; assay type: cell-based, human; settings: 48 h; for inhibition at 10 µM: Homo sapiens, read-out: % Inhibition at 10 μM Solution in Cancer Cell Line
[16] = tested on: KB cells; settings: Chinese Chemical Letters 2013, 24, 57-58, read-out: cytotoxicity against KB cells in vitro, IC50; cited from earlier work

Compound	inhibition at 10 µM [1] [%]	inhibition at 10 µM [2] [%]	inhibition at 10 µM [3] [%]	inhibition at 10 µM [4] [%]	inhibition at 10 µM [5] [%]	inhibition at 10 µM [6] [%]	inhibition at 10 µM [7] [%]	inhibition at 10 µM [8] [%]	inhibition at 10 µM [9] [%]	inhibition at 10 µM [10] [%]	inhibition at 10 µM [11] [%]	inhibition at 10 µM [12] [%]	inhibition at 10 µM [13] [%]	inhibition at 10 µM [14] [%]	inhibition at 10 µM [15] [%]	also measured
8-Hydroxy-4,7,7-trimethyl-7,8-dihydrocyclopenta[e]isoindole-1,3(2H,6H)-dione [Compound 8]	–	–	–	–	–	–	–	–	–	–	–	–	–	–	–	% Inhibition at 10 μM Solution in Cancer Cell Line ([1]; 48 h): 4.31%; % Inhibition at 10 μM Solution in Cancer Cell Line [2]: 0.00%; % Inhibition at 10 μM Solution in Cancer Cell Line [3]: 0.00%; % Inhibition at 10 μM Solution in Cancer Cell Line ([4]; Colon SW620, 48 h): −11.48%; % Inhibition at 10 μM Solution in Cancer Cell Line ([5]; 48 h): 0.00%; % Inhibition at 10 μM Solution in Cancer Cell Line [6]: 29.05%; % Inhibition at 10 μM Solution in Cancer Cell Line [7]: 0.00%; % Inhibition at 10 μM Solution in Cancer Cell Line [8]: 2.10%; % Inhibition at 10 μM Solution in Cancer Cell Line [9]: 0.00%; % Inhibition at 10 μM Solution in Cancer Cell Line [10]: 6.05%; % Inhibition at 10 μM Solution in Cancer Cell Line [11]: 0.00%; % Inhibition at 10 μM Solution in Cancer Cell Line [12]: 0.00%; % Inhibition at 10 μM Solution in Cancer Cell Line ([13]; Ovary SKOV3, 48 h): 5.55%; % Inhibition at 10 μM Solution in Cancer Cell Line [14]: 0.00%; % Inhibition at 10 μM Solution in Cancer Cell Line [15]: 0.00%
Cc1cc2c(c3c1C(=O)NC3=O)C(O)C(C)(C)C2 (stereo not shown) [Compound 1]	–	–	–	–	–	–	–	–	–	–	–	–	–	–	–	IC50 [16]: 16.6 µM
CCOC(=O)C1(C(=O)OCC)Cc2ccc3c(c2C1)C(=O)NC3=O [Compound 18, Diethyl 1,3-dioxo-2,3,6,8-tetrahydrocyclopenta[e]isoindole-7,7(1H)-dicarboxylate]	6.84	0	0	13.2	0	20.9	0	-0.05	0	28.8	0	0	-1.46	0	0	–
CCOC(=O)C1(C(=O)OCC)Cc2ccc3c(c2C1)C(=O)N(CCO)C3=O [Compound 19, Diethyl 2-(2-hydroxyethyl)-1,3-dioxo-2,3,6,8-tetrahydrocyclopenta[e]isoindole-7,7(1H)-dicarboxylate]	3.44	0	0	15.2	0	25.7	0	0.16	0	29	0	0	-3.91	0	0	–
CCOC(=O)C1(C(=O)OCC)Cc2cc(C)c3c(c2C1)C(=O)NC3=O [Compound 22, Diethyl 4-methyl-1,3-dioxo-2,3,6,8-tetrahydrocyclopenta[e]isoindole-7,7(1H)-dicarboxylate]	10.4	0	0	15.4	0	34.3	0	10.3	0	27	0	0	-9.36	0	0	–
CCOC(=O)C1(C(=O)OCC)Cc2cc(C)c3c(c2C1)C(=O)N(CCO)C3=O [Compound 23, Diethyl 2-(2-hydroxyethyl)-4-methyl-1,3-dioxo-2,3,6,8-tetrahydrocyclopenta[e]isoindole-7,7(1H)-dicarboxylate]	8.24	0	0	13.3	0	31	0	11	0	19.2	0	0	-7.23	0	0	–
CCOC(=O)C1(C(=O)OCC)Cc2cc(C)c3c(c2C1)C(=O)N(S(=O)(=O)c1ccc(F)cc1)C3=O [Compound 24, Diethyl 2-((4-fluorophenyl)sulfonyl)-4-methyl-1,3-dioxo-2,3,6,8-tetrahydrocyclopenta[e]isoindole-7,7(1H)-dicarboxylate]	34.9	0	0	50.5	0	65.2	0	59.4	0	48.2	0	0	21.2	0	0	–
COc1cccc2c1C(=O)c1c(O)c3c(c(O)c1C2=O)C[C@@](O)(C(=O)CO)C[C@@H]3O[C@H]1C[C@H](N)[C@H](O)[C@H](C)O1 [Doxorubicin, reference compound]	66.7	0	0	80.3	0	89.5	0	89.6	0	69.1	0	0	58	0	0	–
